# Test results: ChEMBL document CHEMBL1177794, “Broad spectrum alkynyl inhibitors of T315I Bcr-Abl” (Bioorg Med Chem Lett, 2010)
# Assays:
# [1] = molecular target: Serine/threonine-protein kinase Nek11 (Homo sapiens) (UniProt Q8NG66); experiment: Inhibition of NEK11 at 10 uM
# [2] = molecular target: Serine/threonine-protein kinase LATS2 (Homo sapiens) (UniProt Q9NRM7); experiment: Inhibition of LATS2 at 10 uM; values are per cent of control
# [3] = molecular target: Proto-oncogene tyrosine-protein kinase Src (Homo sapiens) (UniProt P12931); experiment: Inhibition of SRC at 10 uM; values are per cent of control
# [4] = molecular target: Serine/threonine-protein kinase 36 (Homo sapiens) (UniProt Q9NRP7); experiment: Inhibition of STK36 at 10 uM
# [5] = molecular target: Inhibitor of nuclear factor kappa-B kinase subunit beta (Homo sapiens) (UniProt O14920); experiment: Inhibition of IKK-beta at 10 uM; settings: values are per cent of control
# [6] = molecular target: Ribosomal protein S6 kinase alpha-4 (Homo sapiens) (UniProt O75676); experiment: Inhibition of RPS6KA4 N-terminal domain1 at 10 uM
# [7] = molecular target: Mitogen-activated protein kinase kinase kinase 12 (Homo sapiens) (UniProt Q12852); experiment: Inhibition of DLK at 10 uM; values are per cent of control
# [8] = molecular target: Casein kinase I isoform alpha (Homo sapiens) (UniProt P48729); experiment: Inhibition of CSNK1A1 at 10 uM; values are per cent of control
# [9] = molecular target: Tyrosine-protein kinase Yes (Homo sapiens) (UniProt P07947); experiment: Inhibition of YES at 10 uM; settings: values are per cent of control
# [10] = molecular target: cGMP-dependent protein kinase 1 (Homo sapiens) (UniProt Q13976); experiment: Inhibition of PRKG1 at 10 uM; settings: values are per cent of control
# [11] = molecular target: Insulin receptor-related protein (Homo sapiens) (UniProt P14616); experiment: Inhibition of INSRR at 10 uM; settings: values are per cent of control
# Insulin receptor-related protein (Homo sapiens), sequence (P14616 27-742 limits assumed): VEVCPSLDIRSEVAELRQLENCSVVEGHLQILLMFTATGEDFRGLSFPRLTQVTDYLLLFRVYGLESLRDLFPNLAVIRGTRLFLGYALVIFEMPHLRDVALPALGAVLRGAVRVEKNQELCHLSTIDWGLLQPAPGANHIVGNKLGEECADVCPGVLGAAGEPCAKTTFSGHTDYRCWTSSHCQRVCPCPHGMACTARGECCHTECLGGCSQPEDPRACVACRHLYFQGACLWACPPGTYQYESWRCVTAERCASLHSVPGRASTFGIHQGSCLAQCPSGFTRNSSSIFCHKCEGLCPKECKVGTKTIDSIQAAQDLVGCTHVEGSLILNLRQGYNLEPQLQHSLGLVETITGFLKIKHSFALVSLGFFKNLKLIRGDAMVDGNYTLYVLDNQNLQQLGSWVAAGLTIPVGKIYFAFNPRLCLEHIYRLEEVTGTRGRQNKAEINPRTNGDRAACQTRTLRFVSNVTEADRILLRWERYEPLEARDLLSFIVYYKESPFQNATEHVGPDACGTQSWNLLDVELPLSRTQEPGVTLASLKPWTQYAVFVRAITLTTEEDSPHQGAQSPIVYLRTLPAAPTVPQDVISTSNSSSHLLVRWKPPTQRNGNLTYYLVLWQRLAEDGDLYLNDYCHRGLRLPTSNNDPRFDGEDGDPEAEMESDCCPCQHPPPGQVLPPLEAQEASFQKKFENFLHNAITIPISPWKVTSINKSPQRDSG
# Insulin receptor-related protein (Homo sapiens), sequence (P14616 747-1297 limits assumed): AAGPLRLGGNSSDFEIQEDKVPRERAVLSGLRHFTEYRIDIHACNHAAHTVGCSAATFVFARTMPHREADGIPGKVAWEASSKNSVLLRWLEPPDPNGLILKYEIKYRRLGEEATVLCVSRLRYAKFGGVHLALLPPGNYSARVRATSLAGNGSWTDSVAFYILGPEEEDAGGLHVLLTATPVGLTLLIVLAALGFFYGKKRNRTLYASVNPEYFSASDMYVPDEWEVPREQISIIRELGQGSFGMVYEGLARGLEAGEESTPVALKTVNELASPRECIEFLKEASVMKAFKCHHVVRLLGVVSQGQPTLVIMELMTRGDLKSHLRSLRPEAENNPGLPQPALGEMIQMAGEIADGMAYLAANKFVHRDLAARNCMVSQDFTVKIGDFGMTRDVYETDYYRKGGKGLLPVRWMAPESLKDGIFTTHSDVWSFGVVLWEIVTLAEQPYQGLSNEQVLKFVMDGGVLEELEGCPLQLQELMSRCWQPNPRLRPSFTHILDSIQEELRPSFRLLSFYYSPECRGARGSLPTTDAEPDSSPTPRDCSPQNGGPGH
# [12] = molecular target: Ephrin type-A receptor 8 (Homo sapiens) (UniProt P29322); experiment: Inhibition of EPHA8 at 10 uM; settings: values are per cent of control
# [13] = molecular target: Ephrin type-A receptor 4 (Homo sapiens) (UniProt P54764); experiment: Inhibition of EPHA4 at 10 uM; settings: values are per cent of control
# [14] = molecular target: Casein kinase I isoform alpha-like (Homo sapiens) (UniProt Q8N752); experiment: Inhibition of CSNK1A1L at 10 uM; settings: values are per cent of control
# [15] = system: Mast/stem cell growth factor receptor Kit (Homo sapiens), P10721 [D816H]; experiment: Inhibition of KIT D816H mutant at 10 uM; settings: values are per cent of control
# [16] = molecular target: Death-associated protein kinase 3 (Homo sapiens) (UniProt O43293); experiment: Inhibition of DAPK3 at 10 uM; settings: values are per cent of control
# [17] = molecular target: Serine/threonine-protein kinase TAO3 (Homo sapiens) (UniProt Q9H2K8); experiment: Inhibition of TAOK3 at 10 uM
# [18] = molecular target: Wee1-like protein kinase 2 (Homo sapiens) (UniProt P0C1S8); experiment: Inhibition of WEE2 at 10 uM; settings: values are per cent of control
# Wee1-like protein kinase 2 (Homo sapiens), sequence (P0C1S8 whole entry, looked up): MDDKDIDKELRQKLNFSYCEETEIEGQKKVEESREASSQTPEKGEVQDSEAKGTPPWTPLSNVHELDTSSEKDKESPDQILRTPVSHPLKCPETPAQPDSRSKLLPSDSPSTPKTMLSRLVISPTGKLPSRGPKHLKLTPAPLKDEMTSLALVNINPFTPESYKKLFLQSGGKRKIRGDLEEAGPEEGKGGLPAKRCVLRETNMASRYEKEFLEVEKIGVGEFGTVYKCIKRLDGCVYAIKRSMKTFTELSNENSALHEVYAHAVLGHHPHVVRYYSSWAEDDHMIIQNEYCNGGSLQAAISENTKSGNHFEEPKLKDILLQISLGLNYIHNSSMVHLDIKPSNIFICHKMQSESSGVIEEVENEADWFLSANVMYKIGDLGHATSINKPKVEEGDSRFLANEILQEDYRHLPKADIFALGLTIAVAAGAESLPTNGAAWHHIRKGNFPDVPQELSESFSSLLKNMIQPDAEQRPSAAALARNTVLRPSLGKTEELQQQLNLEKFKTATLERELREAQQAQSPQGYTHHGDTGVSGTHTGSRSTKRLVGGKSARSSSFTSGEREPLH
# [19] = molecular target: Activated CDC42 kinase 1 (Homo sapiens) (UniProt Q07912); experiment: Inhibition of TNK2 at 10 uM; settings: values are per cent of control
# [20] = molecular target: Vascular endothelial growth factor receptor 1 (Homo sapiens) (UniProt P17948); experiment: Inhibition of FLT1 at 10 uM; values are per cent of control
# [21] = molecular target: Angiopoietin-1 receptor (Homo sapiens) (UniProt Q02763); experiment: Inhibition of TIE2 at 10 uM; values are per cent of control
# Angiopoietin-1 receptor (Homo sapiens), sequence (Q02763 whole entry): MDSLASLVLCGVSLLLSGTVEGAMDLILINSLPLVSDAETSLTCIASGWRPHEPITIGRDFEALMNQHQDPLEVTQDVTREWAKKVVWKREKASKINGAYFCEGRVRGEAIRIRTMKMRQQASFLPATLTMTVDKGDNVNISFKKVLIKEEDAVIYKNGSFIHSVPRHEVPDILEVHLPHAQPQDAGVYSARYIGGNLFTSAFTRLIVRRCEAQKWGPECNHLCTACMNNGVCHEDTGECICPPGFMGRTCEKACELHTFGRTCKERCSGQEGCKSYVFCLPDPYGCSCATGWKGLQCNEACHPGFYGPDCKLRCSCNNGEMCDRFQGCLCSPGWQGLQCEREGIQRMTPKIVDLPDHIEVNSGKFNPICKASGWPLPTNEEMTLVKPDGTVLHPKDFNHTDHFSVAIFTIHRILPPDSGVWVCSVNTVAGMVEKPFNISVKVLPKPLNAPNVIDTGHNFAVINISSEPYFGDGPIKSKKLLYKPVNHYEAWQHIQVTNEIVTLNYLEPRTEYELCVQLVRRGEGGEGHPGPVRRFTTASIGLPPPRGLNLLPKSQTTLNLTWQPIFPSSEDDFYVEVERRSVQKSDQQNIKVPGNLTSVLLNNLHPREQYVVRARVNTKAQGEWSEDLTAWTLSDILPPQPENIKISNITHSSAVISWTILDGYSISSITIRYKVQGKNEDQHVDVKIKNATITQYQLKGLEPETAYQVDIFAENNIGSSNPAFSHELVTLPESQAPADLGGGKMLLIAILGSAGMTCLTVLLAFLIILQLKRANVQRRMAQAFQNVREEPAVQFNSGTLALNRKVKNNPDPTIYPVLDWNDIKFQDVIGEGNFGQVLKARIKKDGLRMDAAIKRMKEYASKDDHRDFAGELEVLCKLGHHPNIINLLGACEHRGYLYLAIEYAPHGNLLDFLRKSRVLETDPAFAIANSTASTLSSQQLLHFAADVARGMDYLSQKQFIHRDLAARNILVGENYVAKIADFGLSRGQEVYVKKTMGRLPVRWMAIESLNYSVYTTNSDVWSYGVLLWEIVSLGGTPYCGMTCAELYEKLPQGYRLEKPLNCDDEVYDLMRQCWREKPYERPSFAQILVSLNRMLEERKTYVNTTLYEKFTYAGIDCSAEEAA
# [22] = molecular target: Serine/threonine-protein kinase BRSK1 (Homo sapiens) (UniProt Q8TDC3); experiment: Inhibition of BRSK1 at 10 uM; settings: values are per cent of control
# [23] = molecular target: Glycogen synthase kinase-3 alpha (Homo sapiens) (UniProt P49840); experiment: Inhibition of GSK3A at 10 uM; settings: values are per cent of control
# [24] = molecular target: Discoidin domain-containing receptor 2 (Homo sapiens) (UniProt Q16832); experiment: Inhibition of DDR2 at 10 uM; settings: values are per cent of control
# [25] = molecular target: Dual specificity protein kinase CLK3 (Homo sapiens) (UniProt P49761); experiment: Inhibition of CLK3 at 10 uM; settings: values are per cent of control
# [26] = molecular target: Epidermal growth factor receptor (Homo sapiens) (UniProt P04626+P00533+Q15303+P21860); experiment: Inhibition of EGFR L747-T751del, Sins mutant at 10 uM; values are per cent of control
# [27] = molecular target: Dual specificity mitogen-activated protein kinase kinase 4 (Homo sapiens) (UniProt P45985); experiment: Inhibition of MEK4 at 10 uM; settings: values are per cent of control
# Dual specificity mitogen-activated protein kinase kinase 4 (Homo sapiens), sequence (P45985 whole entry): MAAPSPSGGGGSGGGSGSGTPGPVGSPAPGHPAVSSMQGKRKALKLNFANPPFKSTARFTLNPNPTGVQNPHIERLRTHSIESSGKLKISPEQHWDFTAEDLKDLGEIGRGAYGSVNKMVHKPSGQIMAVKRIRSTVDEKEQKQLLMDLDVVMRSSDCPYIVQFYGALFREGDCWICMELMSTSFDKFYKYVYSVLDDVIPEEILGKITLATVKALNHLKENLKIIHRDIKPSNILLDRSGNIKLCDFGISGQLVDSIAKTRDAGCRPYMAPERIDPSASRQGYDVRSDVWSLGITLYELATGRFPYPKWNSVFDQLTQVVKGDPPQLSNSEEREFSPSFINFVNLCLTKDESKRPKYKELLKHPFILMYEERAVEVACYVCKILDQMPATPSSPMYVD
# [28] = molecular target: Activin receptor type-2B (Homo sapiens) (UniProt Q13705); experiment: Inhibition of ACVR2B at 10 uM; values are per cent of control
# [29] = molecular target: SRSF protein kinase 3 (Homo sapiens) (UniProt Q9UPE1); experiment: Inhibition of SRPK3 at 10 uM
# [30] = molecular target: Tyrosine-protein kinase CSK (Homo sapiens) (UniProt P41240); experiment: Inhibition of CSK at 10 uM; values are per cent of control
# [31] = molecular target: 5'-AMP-activated protein kinase catalytic subunit alpha-1 (Homo sapiens) (UniProt Q13131); experiment: Inhibition of AMPK-alpha1 at 10 uM; settings: values are per cent of control
# [32] = molecular target: Activin receptor type-1 (Homo sapiens) (UniProt Q04771); experiment: Inhibition of ACVR1 at 10 uM; settings: values are per cent of control
# [33] = molecular target: Receptor-type tyrosine-protein kinase FLT3 (Homo sapiens) (UniProt P36888); experiment: Inhibition of FLT3 at 10 uM; settings: values are per cent of control
# Receptor-type tyrosine-protein kinase FLT3 (Homo sapiens), sequence (P36888 whole entry): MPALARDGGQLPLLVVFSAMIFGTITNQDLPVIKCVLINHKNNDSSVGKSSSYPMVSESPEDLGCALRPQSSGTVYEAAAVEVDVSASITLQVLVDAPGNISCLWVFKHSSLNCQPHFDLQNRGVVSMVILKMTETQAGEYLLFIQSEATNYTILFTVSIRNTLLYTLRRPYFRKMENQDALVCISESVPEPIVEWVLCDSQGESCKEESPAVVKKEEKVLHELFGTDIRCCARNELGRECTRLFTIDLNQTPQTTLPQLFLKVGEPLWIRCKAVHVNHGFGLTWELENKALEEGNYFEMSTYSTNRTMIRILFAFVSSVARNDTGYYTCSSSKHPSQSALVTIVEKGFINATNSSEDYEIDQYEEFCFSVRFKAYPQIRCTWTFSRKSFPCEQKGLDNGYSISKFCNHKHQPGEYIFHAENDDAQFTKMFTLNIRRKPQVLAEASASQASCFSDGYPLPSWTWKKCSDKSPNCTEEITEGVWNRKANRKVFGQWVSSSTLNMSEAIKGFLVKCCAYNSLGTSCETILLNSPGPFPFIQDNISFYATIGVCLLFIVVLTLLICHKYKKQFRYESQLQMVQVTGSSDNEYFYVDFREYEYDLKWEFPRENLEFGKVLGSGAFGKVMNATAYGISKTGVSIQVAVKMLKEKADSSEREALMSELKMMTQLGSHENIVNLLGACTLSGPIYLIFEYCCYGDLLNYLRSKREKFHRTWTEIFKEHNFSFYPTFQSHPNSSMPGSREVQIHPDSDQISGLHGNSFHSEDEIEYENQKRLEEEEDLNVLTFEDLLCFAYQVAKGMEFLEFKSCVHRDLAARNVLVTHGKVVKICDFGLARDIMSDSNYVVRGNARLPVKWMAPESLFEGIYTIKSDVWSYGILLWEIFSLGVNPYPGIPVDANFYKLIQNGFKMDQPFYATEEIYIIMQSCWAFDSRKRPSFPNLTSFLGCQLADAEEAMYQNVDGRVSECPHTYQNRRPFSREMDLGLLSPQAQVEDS
# [34] = molecular target: Peripheral plasma membrane protein CASK (Homo sapiens) (UniProt O14936); experiment: Inhibition of CASK at 10 uM; settings: values are per cent of control
# BaF3 = experiment: Antiproliferative activity against mouse BAF3 cells; format: functional, cell-based
# [35] = molecular target: Serine/threonine-protein kinase RIO2 (Homo sapiens) (UniProt Q9BVS4); experiment: Inhibition of RIOK2 at 10 uM; settings: values are per cent of control
# [36] = molecular target: Hormonally up-regulated neu tumor-associated kinase (Homo sapiens) (UniProt P57058); experiment: Inhibition of HUNK at 10 uM; settings: values are per cent of control
# Hormonally up-regulated neu tumor-associated kinase (Homo sapiens), sequence (P57058 whole entry): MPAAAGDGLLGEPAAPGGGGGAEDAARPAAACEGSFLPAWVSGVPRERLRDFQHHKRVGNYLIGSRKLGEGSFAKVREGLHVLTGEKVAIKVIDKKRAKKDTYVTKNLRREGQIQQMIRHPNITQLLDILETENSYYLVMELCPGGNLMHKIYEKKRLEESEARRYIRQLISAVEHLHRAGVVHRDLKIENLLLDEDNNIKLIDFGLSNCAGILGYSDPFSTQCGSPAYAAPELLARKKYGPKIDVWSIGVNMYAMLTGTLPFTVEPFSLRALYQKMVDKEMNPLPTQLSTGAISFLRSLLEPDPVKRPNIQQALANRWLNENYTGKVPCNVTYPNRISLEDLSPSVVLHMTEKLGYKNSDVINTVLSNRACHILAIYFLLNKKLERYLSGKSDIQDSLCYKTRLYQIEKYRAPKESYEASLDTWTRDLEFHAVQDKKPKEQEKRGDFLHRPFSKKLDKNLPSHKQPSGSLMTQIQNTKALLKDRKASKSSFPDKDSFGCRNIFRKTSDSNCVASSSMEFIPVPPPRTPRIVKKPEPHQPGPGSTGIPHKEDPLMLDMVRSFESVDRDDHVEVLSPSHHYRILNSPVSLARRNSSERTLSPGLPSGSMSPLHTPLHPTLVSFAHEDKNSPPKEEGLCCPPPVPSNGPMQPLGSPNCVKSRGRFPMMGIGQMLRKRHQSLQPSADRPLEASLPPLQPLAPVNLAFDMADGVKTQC
# [37] = molecular target: Cyclin-dependent kinase-like 2 (Homo sapiens) (UniProt Q92772); experiment: Inhibition of CDKL2 at 10 uM; settings: values are per cent of control
# [38] = system: Tyrosine-protein kinase ABL1 (Homo sapiens), P00519 [Y253F]; experiment: Inhibition of phosphorylated ABL1 Y253F mutant at 10 uM; settings: values are per cent of control
# [39] = molecular target: Cyclin-dependent kinase 15 (Homo sapiens) (UniProt Q96Q40); experiment: Inhibition of PFTAIRE2 at 10 uM; settings: values are per cent of control
# [40] = system: Hepatocyte growth factor receptor (Homo sapiens), P08581 [Y1235D]; experiment: Inhibition of MET Y1235D mutant at 10 uM
# [41] = molecular target: Death-associated protein kinase 1 (Homo sapiens) (UniProt P53355); experiment: Inhibition of DAPK1 at 10 uM; settings: values are per cent of control
# [42] = molecular target: Phosphatidylinositol 4-kinase beta (Homo sapiens) (UniProt Q9UBF8); experiment: Inhibition of PIK4CB at 10 uM
compound,measurement,setting,value
CCN1CCN(Cc2ccc(NC(=O)c3ccc(C)c(C#Cc4cnc5[nH]ccc5c4)c3)cc2C(F)(F)F)CC1,inhibition,[1],18%
same,"level, % of control",[2],7%
same,% of control,[3],0.05%
same,inhibition,[4],0.15%
same,"residual binding, % of control",[5],0.1%
same,inhibition,[6],3.6%
same,"level, % of control",[7],3.8%
same,"level, % of control",[8],89%
same,"residual binding, % of control",[9],0.25%
same,"residual binding, % of control",[10],100%
same,"residual binding, % of control",[11],68%
same,"residual binding, % of control",[12],0%
same,"residual binding, % of control",[13],0.25%
same,"residual binding, % of control",[14],75%
same,"residual binding, % of control",[15],8.2%
same,"residual binding, % of control",[16],96%
same,inhibition,[17],0%
same,"residual binding, % of control",[18],20%
same,"residual binding, % of control",[19],0.6%
same,"level, % of control",[20],0.8%
same,% of control,[21],0%
same,"residual binding, % of control",[22],100%
same,"residual binding, % of control",[23],100%
same,"residual binding, % of control",[24],2.8%
same,"residual binding, % of control",[25],94%
same,"level, % of control",[26],0.4%
same,"residual binding, % of control",[27],25%
same,"level, % of control",[28],23%
same,inhibition,[29],11%
same,"level, % of control",[30],0.1%
same,"residual binding, % of control",[31],0.8%
same,"residual binding, % of control",[32],100%
same,"residual binding, % of control",[33],0.15%
same,"residual binding, % of control",[34],100%
same,EC50,BaF3,1 µM
same,"residual binding, % of control",[35],2%
same,"residual binding, % of control",[36],21%
same,"residual binding, % of control",[37],4.8%
same,"residual binding, % of control",[38],0.2%
same,"residual binding, % of control",[39],2%
same,inhibition,[40],4.9%
same,"residual binding, % of control",[41],94%
same,inhibition,[42],100%
CCN1CCN(Cc2ccc(NC(=O)c3ccc(C)c(C#Cc4cccnc4)c3)cc2C(F)(F)F)CC1,inhibition,[1],9.1%
same,"level, % of control",[2],7.6%
same,% of control,[3],0%
same,inhibition,[4],0.4%
same,"residual binding, % of control",[5],0%
same,inhibition,[6],30%
same,"level, % of control",[7],9.8%
same,"level, % of control",[8],75%
same,"residual binding, % of control",[9],0.1%
same,"residual binding, % of control",[10],100%
same,"residual binding, % of control",[11],79%
same,"residual binding, % of control",[12],0%
same,"residual binding, % of control",[13],0%
same,"residual binding, % of control",[14],89%
same,"residual binding, % of control",[15],6%
same,"residual binding, % of control",[16],100%
same,inhibition,[17],0%
same,"residual binding, % of control",[18],100%
same,"residual binding, % of control",[19],11%
same,"level, % of control",[20],0.5%
same,% of control,[21],0.05%
same,"residual binding, % of control",[22],84%
same,"residual binding, % of control",[23],100%
same,"residual binding, % of control",[24],1%
same,"residual binding, % of control",[25],70%
same,"level, % of control",[26],0.45%
same,"residual binding, % of control",[27],43%
same,"level, % of control",[28],96%
same,inhibition,[29],45%
same,"level, % of control",[30],0.15%
same,"residual binding, % of control",[31],1.2%
same,"residual binding, % of control",[32],100%
same,"residual binding, % of control",[33],0.25%
same,"residual binding, % of control",[34],100%
same,EC50,BaF3,1.59 µM
same,"residual binding, % of control",[35],0.5%
same,"residual binding, % of control",[36],54%
same,"residual binding, % of control",[37],1.4%
same,"residual binding, % of control",[38],0.15%
same,"residual binding, % of control",[39],6.4%
same,inhibition,[40],61%
same,"residual binding, % of control",[41],100%
same,inhibition,[42],100%
